{"source": "PubChem BioAssay AID330", "about": "(DTP/NCI, 2004)", "test_system": "P388 leukemia ip, CD2F1 mice, survival T/C", "assay": "NCI In Vivo Anticancer Drug Screen. Data for tumor model P388 Leukemia (intraperitoneal) in CD2F1 (CDF1) mice", "settings": "endpoint: median survival time, higher = longer survival", "how_it_was_run": "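Mice carrying the transplanted tumor received test compound or vehicle. Survival was recorded in each group, and the value is the treated-group measurement divided by that of the vehicle-treated control group.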", "key": {"[1]": {"settings": "dose: 100.0 mg/kg/injection, schedule: Q01DX005 (ip), vehicle: saline with Tween-80"}, "[2]": {"settings": "dose: 200.0 mg/kg/injection, schedule: Q01DX005 (ip), vehicle: saline with Tween-80"}, "[3]": {"settings": "dose: 6.25 mg/kg/injection, schedule: Q01DX009 (ip), vehicle: saline with Tween-80"}, "[4]": {"settings": "dose: 25.0 mg/kg/injection, schedule: Q01DX009 (ip), vehicle: saline with Tween-80"}, "[5]": {"settings": "dose: 50.0 mg/kg/injection, schedule: Q01DX009 (ip), vehicle: Klucel (hydroxypropylcellulose) (HPC)"}, "[6]": {"settings": "dose: 100.0 mg/kg/injection, schedule: Q01DX009 (ip), vehicle: Klucel (hydroxypropylcellulose) (HPC)"}, "[7]": {"settings": "dose: 200.0 mg/kg/injection, schedule: Q01DX009 (ip), vehicle: Klucel (hydroxypropylcellulose) (HPC)"}}, "note": "“And” between values parts separate entries of the source, which are not always exact repeats. Equal values may be shown once. Inconclusive results and toxic doses are left out.", "data": [{"molecule": "C1=NN2C3c4ccccc4C(C1)C32", "note": "(stereo not given)", "values": [{"measurement": "T/C", "setting": "dose: 100.0 mg/kg/injection, schedule: Q01DX001 (ip), vehicle: Klucel (hydroxypropylcellulose) (HPC)", "value": "109 % of control"}, {"measurement": "T/C", "setting": "dose: 200.0 mg/kg/injection, schedule: Q01DX001 (ip), vehicle: Klucel (hydroxypropylcellulose) (HPC)", "value": "113 % of control"}]}, {"molecule": "Cc1nsc2[nH]c(=O)n(Nc3ccc(O)cc3)c(=O)c12", "values": [{"measurement": "T/C", "setting": "[1]", "value": "174 % of control and 178 % of control"}, {"measurement": "T/C", "setting": "[2]", "value": "180 % of control"}]}, {"molecule": "CN(c1ccccc1)c1c2c(oc(=O)c1Cl)-c1ccccc1SC2", "values": [{"measurement": "T/C", "setting": "[3]", "value": "91 % of control"}, {"measurement": "T/C", "setting": "[4]", "value": "93 % of control"}, {"measurement": "T/C", "setting": "dose: 200.0 mg/kg/injection, schedule: Q01DX009 (ip), vehicle: saline with Tween-80", "value": "93 % of control"}]}, {"molecule": "O=[N+]([O-])c1cccnc1S(=O)(=O)c1ncccn1", "values": [{"measurement": "T/C", "setting": "dose: 6.25 mg/kg/injection, schedule: Q01DX009 (ip), vehicle: Klucel (hydroxypropylcellulose) (HPC)", "value": "100 % of control"}, {"measurement": "T/C", "setting": "dose: 12.5 mg/kg/injection, schedule: Q01DX009 (ip), vehicle: Klucel (hydroxypropylcellulose) (HPC)", "value": "110 % of control"}, {"measurement": "T/C", "setting": "dose: 25.0 mg/kg/injection, schedule: Q01DX009 (ip), vehicle: Klucel (hydroxypropylcellulose) (HPC)", "value": "96 % of control"}]}, {"molecule": "CCOC(=O)c1cccc2c(=O)c3c([nH]c12)C(=O)c1c([nH]c2c(C(=O)OCC)cccc2c1=O)C3=O", "values": [{"measurement": "T/C", "setting": "[5]", "value": "98 % of control"}, {"measurement": "T/C", "setting": "[6]", "value": "90 % of control"}, {"measurement": "T/C", "setting": "[7]", "value": "90 % of control"}]}, {"molecule": "CC1(C)CC(O)CC2(C)OC(=O)C=C12", "note": "(stereo not given)", "values": [{"measurement": "T/C", "setting": "dose: 2.5 mg/kg/injection, schedule: Q01DX009 (ip), vehicle: DMSO", "value": "101 % of control"}, {"measurement": "T/C", "setting": "dose: 5.0 mg/kg/injection, schedule: Q01DX009 (ip), vehicle: DMSO", "value": "103 % of control"}, {"measurement": "T/C", "setting": "dose: 10.0 mg/kg/injection, schedule: Q01DX009 (ip), vehicle: DMSO", "value": "91 % of control"}]}, {"molecule": "C/C(=N\\N=C(N)N)c1cccc(/C(C)=N/N=C(N)N)n1", "values": [{"measurement": "T/C", "setting": "[3]", "value": "101 % of control"}, {"measurement": "T/C", "setting": "[4]", "value": "110 % of control"}, {"measurement": "T/C", "setting": "dose: 50.0 mg/kg/injection, schedule: Q01DX009 (ip), vehicle: saline with Tween-80", "value": "90 % of control"}]}, {"molecule": "COC(=O)C1(Br)CCC1(Br)C(=O)OC", "note": "(stereo not given)", "values": [{"measurement": "T/C", "setting": "[5]", "value": "100 % of control"}, {"measurement": "T/C", "setting": "[6]", "value": "109 % of control"}, {"measurement": "T/C", "setting": "[7]", "value": "103 % of control"}, {"measurement": "T/C", "setting": "dose: 400.0 mg/kg/injection, schedule: Q01DX009 (ip), vehicle: Klucel (hydroxypropylcellulose) (HPC)", "value": "94 % of control"}]}, {"molecule": "CC(=O)Oc1ccc2c(c1)C(=O)CCCCC(=O)O2", "values": [{"measurement": "T/C", "setting": "dose: 100.0 mg/kg/injection, schedule: Q04DX002 (ip), vehicle: Klucel (hydroxypropylcellulose) (HPC)", "value": "106 % of control"}, {"measurement": "T/C", "setting": "dose: 200.0 mg/kg/injection, schedule: Q04DX002 (ip), vehicle: Klucel (hydroxypropylcellulose) (HPC)", "value": "116 % of control"}, {"measurement": "T/C", "setting": "dose: 400.0 mg/kg/injection, schedule: Q04DX002 (ip), vehicle: Klucel (hydroxypropylcellulose) (HPC)", "value": "106 % of control"}]}, {"molecule": "Cc1ccc(C(=Nc2ccccc2)c2ccccc2C)cc1", "values": [{"measurement": "T/C", "setting": "dose: 50.0 mg/kg/injection, schedule: Q04DX002 (ip), vehicle: saline with Tween-80", "value": "91 % of control and 95 % of control"}, {"measurement": "T/C", "setting": "dose: 100.0 mg/kg/injection, schedule: Q04DX002 (ip), vehicle: saline with Tween-80", "value": "104 % of control and 86 % of control"}, {"measurement": "T/C", "setting": "dose: 200.0 mg/kg/injection, schedule: Q04DX002 (ip), vehicle: saline with Tween-80", "value": "87 % of control and 93 % of control"}, {"measurement": "T/C", "setting": "dose: 400.0 mg/kg/injection, schedule: Q04DX002 (ip), vehicle: saline with Tween-80", "value": "86 % of control and 95 % of control"}]}, {"molecule": "O=C1c2cccc3cccc(c23)C(=O)N1c1nccs1", "values": [{"measurement": "T/C", "setting": "dose: 50.0 mg/kg/injection, schedule: Q01DX005 (ip), vehicle: saline with Tween-80", "value": "100 % of control"}, {"measurement": "T/C", "setting": "[1]", "value": "94 % of control"}, {"measurement": "T/C", "setting": "[2]", "value": "90 % of control"}]}, {"molecule": "CCCCCC1=CC2C(=O)NC(=O)NC12", "note": "(stereo not given)", "values": [{"measurement": "T/C", "setting": "dose: 12.5 mg/kg/injection, schedule: Q01DX005 (ip), vehicle: Klucel (hydroxypropylcellulose) (HPC)", "value": "98 % of control"}, {"measurement": "T/C", "setting": "dose: 25.0 mg/kg/injection, schedule: Q01DX005 (ip), vehicle: Klucel (hydroxypropylcellulose) (HPC)", "value": "97 % of control"}, {"measurement": "T/C", "setting": "dose: 50.0 mg/kg/injection, schedule: Q01DX005 (ip), vehicle: Klucel (hydroxypropylcellulose) (HPC)", "value": "105 % of control"}, {"measurement": "T/C", "setting": "dose: 100.0 mg/kg/injection, schedule: Q01DX005 (ip), vehicle: Klucel (hydroxypropylcellulose) (HPC)", "value": "96 % of control"}]}, {"molecule": "CN(C(=O)C(Cl)Cl)c1ccc(-c2csc(Cc3ccccc3)n2)cc1", "values": [{"measurement": "T/C", "setting": "dose: 100.0 mg/kg/injection, schedule: Q04DX003 (ip), vehicle: Klucel (hydroxypropylcellulose) (HPC)", "value": "101 % of control"}, {"measurement": "T/C", "setting": "dose: 200.0 mg/kg/injection, schedule: Q04DX003 (ip), vehicle: Klucel (hydroxypropylcellulose) (HPC)", "value": "99 % of control"}, {"measurement": "T/C", "setting": "dose: 400.0 mg/kg/injection, schedule: Q04DX003 (ip), vehicle: Klucel (hydroxypropylcellulose) (HPC)", "value": "97 % of control"}]}]}
